Experimental data: patent US20250171465A1, “AKT INHIBITORS” (Stablix, Inc., priority 2023, published 2025)
Read-outs that look alike come from different tables or passages of the source.

What was measured:
Format in all cases: cell-based
MDAMB231.1 = test: Cell Titer Glo (CTG) proliferation assay, MDA-MB-231; conditions: MDAMB231.1 cells, 72 hrs., read-out: AVE CTG Proliferation MDAMB231.1 72 hrs.
Method: (§1) Seed cells in 40 μL of cell culture media into each well of 384-well cell culture plate, spin them at room temperature at 1,000 RPM for 1 minute and then transfer the plates into 37° C. 5% CO2 incubator overnight. Next day, treat cells with 40 nL of diluted compound and return to incubator. After compound treatment for 3 days, Add 30 μL of CellTiter-Glo reagent (Promega) into each well to be detected. Then place the plates at room temperature for 30 min followed by reading on EnVision. Inhibition activity calculated as % DMSO=100×(LumSample-Lum low control)/(Lum high control-Lum low control) where high control is from cells treated with 0.1% DMSO and Low control obtained from PBS only. Use XLFit (equation 201) to calculate IC50 (A+ ((B−A)/(1[…]((x/C)^D)))) where A: Bottom, B: Top, C: IC50, D: Slope.

KU1919.1 = test: Cell Titer Glo (CTG) proliferation assay, KU1919; conditions: KU1919.1 cells, 72.0 hrs., read-out: AVE CTG Proliferation KU1919.1 72.0 hrs.
How it was run: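 After overnight seeding at 37 °C, 5% CO2, cells were exposed to compound for 3 days. Viability read by CellTiter-Glo luminescence after 30 min at room temperature.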

MDAMB468.1 = test: Cell Titer Glo (CTG) proliferation assay, MDA-MB-468; conditions: MDAMB468.1 cells, 72.0 hrs., read-out: AVE CTG Proliferation MDAMB468.1 72.0 hrs.
Method: as §1

SMILES	IC50 (MDAMB468.1; Homo sapiens, MDA-MB-468) [µM]	IC50 (KU1919.1; Homo sapiens, KU-19-19) [µM]	other results
NC1(C(=O)N[C@@H](CCO)c2ccc(Cl)cc2)CCN(c2nc[nH]c3nccc2-3)CC1 [AZD-5363, Capivasertib, reference compound]			IC50 (MDAMB231.1): > 10 µM; IC50 (KU1919.1): > 10 µM; IC50 (MDAMB468.1): > 10 µM
CCOc1cc(OC)ccc1CNCC(=O)N1CCCC(c2cccc(C(=O)N[C@@H](C(=O)N3CCN(CC4CCN(CC(=O)NCCNC[C@@H](C(=O)N5CCN(c6ncnc7c6[C@H](C)C[C@H]7O)CC5)c5ccc(Cl)cc5)CC4)CC3)C3CCCCC3)c2)C1 (stereo partly drawn) [Compound I-17]	1 to 5	1 to 5	IC50 (MDAMB231.1; Homo sapiens, MDA-MB-231): 1 to 5 µM
CCc1cccc(-c2cnc(C(=O)NCCOCCNCC[C@H](NC(=O)C3(N)CCN(c4ncnc5[nH]ccc45)CC3)c3ccc(Cl)cc3)c(NC(C)=O)c2)c1 [Compound I-184]	> 10	5 to 10	
CCc1cccc(-c2cnc(C(=O)N3CCC(OC4CCN(CC(=O)NCCNC[C@@H](C(=O)N5CCN(c6ncnc7c6[C@H](C)C[C@H]7O)CC5)c5ccc(Cl)cc5)CC4)CC3)c(N)c2)c1 [Compound I-194]	5 to 10	5 to 10	
CCc1cccc(-c2cnc(C(=O)N3CCN(CC45CCC(NCC(=O)NCCNC[C@@H](C(=O)N6CCN(c7ncnc8c7[C@H](C)C[C@H]8O)CC6)c6ccc(Cl)cc6)(CC4)CO5)CC3)c(N)c2)c1 [Compound I-195]	> 10	> 10	
CCc1cccc(-c2cnc(C(=O)N3CCN(CC45CCC(NCC(=O)NCCNC[C@@H](C(=O)N6CCN(c7ncnc8c7[C@H](C)C[C@H]8O)CC6)c6ccc(Cl)cc6)(CC4)CO5)CC3)c(NC(C)=O)c2)c1 [Compound I-197]	1 to 5	5 to 10	
C[C@@H]1C[C@@H](O)c2ncnc(N3CCN(C(=O)[C@H](CNC4CCN(CC5CCN(C(=O)[C@H](NC(=O)c6cccc(C7CCCN(C(=O)C8CC8)C7)c6)C6CCCCC6)CC5)CC4)c4ccc(Cl)cc4)CC3)c21 (stereo partly drawn) [Compound I-214]	1 to 5	1 to 5	
C[C@@H]1C[C@@H](O)c2ncnc(N3CCN(C(=O)[C@H](CNCCNC(=O)CNC45CCC(CN6CCN(C(=O)[C@H](NC(=O)c7cccc(C8CCCN(C(=O)C9CC9)C8)c7)C7CCCCC7)CC6)(CC4)OC5)c4ccc(Cl)cc4)CC3)c21 (stereo partly drawn) [Compound I-215]	> 10	> 10	
CCc1cccc(-c2cnc(C(=O)NCCOCCNCC(=O)NCCN(C[C@@H](C(=O)N3CCN(c4ncnc5c4[C@H](C)C[C@H]5O)CC3)c3ccc(Cl)cc3)C(C)C)c(N)c2)c1 [Compound I-217]	1 to 5	1 to 5	
NC1(C(=O)N[C@@H](CCN2CCC(OC3CCN(C(=O)c4cccc(C5CCCN(C(=O)CNCc6ccc(F)cc6F)C5)c4)CC3)CC2)c2ccc(Cl)cc2)CCN(c2ncnc3[nH]ccc23)CC1 (stereo partly drawn) [Compound I-253]	1 to 5	1 to 5	
NC1(C(=O)N[C@@H](CCN2CCN(C(=O)CN3CCC(OC4CCN(C(=O)c5cccc(C6CCCN(C(=O)C7CC7)C6)c5)CC4)CC3)CC2)c2ccc(Cl)cc2)CCN(c2ncnc3[nH]ccc23)CC1 (stereo partly drawn) [Compound I-255]	> 10	> 10	
CCc1cccc(-c2cnc(C(=O)N3CCC(OC4CCN(CC(=O)NCCNC[C@@H](C(=O)N5CCN(c6ccnc7c6[C@H](C)C[C@H]7O)CC5)c5ccc(Cl)cc5)CC4)CC3)c(NC(=O)OC(C)(C)C)c2)c1 [Compound I-304]	1 to 5	1 to 5	
C[C@@H]1C[C@@H](O)c2ncnc(N3CCN(C(=O)[C@H](CNCCNC(=O)CN4CCC(CN5CCNCC5)CC4)c4ccc(Cl)cc4)CC3)c21 [Compound I-328]	> 10	> 10	

Continued, in another order:

IC50 (MDAMB468.1; Homo sapiens, MDA-MB-468) [µM]	SMILES	IC50 (KU1919.1; Homo sapiens, KU-19-19) [µM]	other results
1 to 5	CCc1cccc(-c2cnc(C(=O)N3CCN(CC4CCN(CC(=O)NCCNC[C@@H](C(=O)N5CCN(c6ncnc7c6[C@H](C)C[C@H]7O)CC5)c5ccc(Cl)cc5)CC4)CC3)c(NC(=O)CN3CCOCC3)c2)c1 [Compound I-173]	1 to 5	
1 to 5	CCc1cccc(-c2cnc(C(=O)N3CCC(OC4CCN(CC(=O)NCCNC[C@@H](C(=O)N5CCN(c6ncnc7c6[C@H](C)C[C@H]7O)CC5)c5ccc(Cl)cc5)CC4)CC3)c(NC(=O)CN3CCOCC3)c2)c1 [Compound I-174]	1 to 5	
1 to 5	CCc1cccc(-c2cnc(C(=O)N3CCN(CC45CCC(NCC(=O)NCCNC[C@@H](C(=O)N6CCN(c7ncnc8c7[C@H](C)C[C@H]8O)CC6)c6ccc(Cl)cc6)(CC4)CO5)CC3)c(NC(=O)CN3CCOCC3)c2)c1 [Compound I-175]	1 to 5	
5 to 10	CCc1cccc(-c2cnc(C(=O)NCCOCCNCC[C@H](NC(=O)C3(N)CCN(c4ncnc5[nH]ccc45)CC3)c3ccc(Cl)cc3)c(N)c2)c1 [Compound I-183]	5 to 10	
1 to 5	CC(C)N(CCNC(=O)CN1CCC(CN2CCN(C(=O)[C@H](NC(=O)c3cccc(C4CCCN(C(=O)CNCc5ccc(F)cc5F)C4)c3)C3CCCCC3)CC2)CC1)C[C@@H](C(=O)N1CCN(c2ncnc3c2[C@H](C)C[C@H]3O)CC1)c1ccc(Cl)cc1 (stereo partly drawn) [Compound I-200]	1 to 5	
5 to 10	C[C@@H]1C[C@@H](O)c2ncnc(N3CCN(C(=O)[C@H](CNCCNC(=O)CNC45CCC(CN6CCN(C(=O)[C@H](NC(=O)c7cccc(C8CCCN(C(=O)CNCc9ccc(F)cc9F)C8)c7)C7CCCCC7)CC6)(CC4)OC5)c4ccc(Cl)cc4)CC3)c21 (stereo partly drawn) [Compound I-203]	5 to 10	
> 10	C[C@@H]1C[C@@H](O)c2ncnc(N3CCN(C(=O)[C@H](CNCCNC(=O)CN4CCC(CN5CCN(C(=O)[C@H](NC(=O)c6cccc(C7CCCN(C(=O)CNC8CC8)C7)c6)C6CCCCC6)CC5)CC4)c4ccc(Cl)cc4)CC3)c21 (stereo partly drawn) [Compound I-205]	5 to 10	
1 to 5	CCc1cccc(-c2cnc(C(=O)NCCOCCNCC(=O)NCCN(C[C@@H](C(=O)N3CCN(c4ncnc5c4[C@H](C)C[C@H]5O)CC3)c3ccc(Cl)cc3)C(C)C)c(NC(C)=O)c2)c1 [Compound I-216]	1 to 5	
1 to 5	NC1(C(=O)N[C@@H](CCN2CCN(C(=O)CN3CCC(OC4CCN(C(=O)c5cc(C6CCCN(C(=O)CNCc7ccc(F)cc7F)C6)ccc5F)CC4)CC3)CC2)c2ccc(Cl)cc2)CCN(c2ncnc3[nH]ccc23)CC1 (stereo partly drawn) [Compound I-223]	1 to 5	
1 to 5	NC1(C(=O)N[C@@H](CCN2CCN(C(=O)CN3CCC(OC4CCN(C(=O)[C@H](NC(=O)c5cc(C6CCCN(C(=O)CNCc7ccc(F)cc7F)C6)ccc5F)C5CCCCC5)CC4)CC3)CC2)c2ccc(Cl)cc2)CCN(c2ncnc3[nH]ccc23)CC1 (stereo partly drawn) [Compound I-225]	1 to 5	
5 to 10	NC1(C(=O)N[C@@H](CCN2CCN(C(=O)CN3CCC(OC4CCN(C(=O)c5cccc(C6CCCN(C(=O)CNCc7ccc(F)cc7F)C6)c5)CC4)CC3)CC2)c2ccc(Cl)cc2)CCN(c2ncnc3[nH]ccc23)CC1 (stereo partly drawn) [Compound I-256]	5 to 10	
> 10	NC1(C(=O)N[C@@H](CCN2CCN(C(=O)CN3CCC(OC4CCN(C(=O)c5cccc(C6CCCN(C(=O)CNC7CC7)C6)c5)CC4)CC3)CC2)c2ccc(Cl)cc2)CCN(c2ncnc3[nH]ccc23)CC1 (stereo partly drawn) [Compound I-257]	> 10	
1 to 5	CCc1cccc(-c2cnc(C(=O)NCCOCCNCC[C@H](NC(=O)C3(N)CCN(c4ncnc5[nH]ccc45)CC3)c3ccc(Cl)cc3)c(NC(=O)OC(C)(C)C)c2)c1 [Compound I-301]	1 to 5	
